According to patent US20240109918A1, “HETEROCYCLIC COMPOUNDS AND USES THEREOF” (Kumquat Biosciences Inc., priority 2022, published 2024):

What was measured:
KRASG12D = biological target: T1, KRASG12D (Homo sapiens, UniProt P01116, G12D); assay: Bio-Biochem-PPI-HTRF Ras-SOS1 interaction assay (KRAS G12D); format: biochemical; details: 5 nM
T1 construct: made in house; host or cells: E. coli BL21 (DE3)
Method in brief: (§1)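 Inhibition of His-hSOS1 binding to GST-tagged wild-type or G12D K-Ras is read as HTRF ratio (665/620 nm) following incubation of about 10 minutes or longer, and IC50 values are fitted from duplicate six-point titrations.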

KRASwt = biological target: T2, KRASwt (Homo sapiens, UniProt P01116); assay: Bio-Biochem-PPI-HTRF Ras-SOS1 interaction assay (KRAS wt); format: biochemical; details: 5 nM
T2 construct: made in house; host or cells: E. coli BL21 (DE3)
T2 sequence (P01116 1-188 isoform P01116-2): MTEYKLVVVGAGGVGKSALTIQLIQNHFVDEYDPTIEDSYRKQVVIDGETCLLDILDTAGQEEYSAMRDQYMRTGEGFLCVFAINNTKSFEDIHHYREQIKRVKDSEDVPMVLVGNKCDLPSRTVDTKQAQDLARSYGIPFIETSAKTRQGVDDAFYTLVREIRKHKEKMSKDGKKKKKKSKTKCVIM
Method in brief: as §1

T1 sequence (P01116 1-188 isoform P01116-2 G12D): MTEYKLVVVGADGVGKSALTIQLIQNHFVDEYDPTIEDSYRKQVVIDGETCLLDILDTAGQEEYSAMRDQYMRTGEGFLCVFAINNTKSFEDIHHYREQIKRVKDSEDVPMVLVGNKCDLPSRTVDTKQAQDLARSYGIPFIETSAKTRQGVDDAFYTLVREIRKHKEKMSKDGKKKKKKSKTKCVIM

N#Cc1c(N)sc2c(F)ccc(-c3c(Cl)cc4c(N5CCCCC6(CN(C(=O)CC7CC(F)(F)C7)C6)C5)nc(OC[C@@]56CCCN5C[C@H](F)C6)nc4c3F)c12 [compound 347, 2-amino-4-(6-chloro-4-(2-(2-(3,3-difluorocyclobutyl)acetyl)-2,6-diazaspiro[3.6]decan-6-yl)-8-fluoro-2-(((2R,7aS)-2-fluorotetrahydro-1H-pyrrolizin-7a(5H)-yl)methoxy)quinazolin-7-yl)-7-fluorobenzo[b]thiophene-3-carbonitrile]
IC50 (KRASG12D): < 5 µM | IC50 (KRASwt): < 5 µM

Cn1nccc1C(=O)N1CC2(CCCCN(c3nc(OC[C@@]45CCCN4C[C@H](F)C5)nc4c(F)c(-c5ccc(F)c6sc(N)c(C#N)c56)c(Cl)cc34)C2)C1 [compound 134, 2-amino-4-(6-chloro-8-fluoro-2-(((2R,7aS)-2-fluorotetrahydro-1H-pyrrolizin-7a(5H)-yl)methoxy)-4-(2-(1-methyl-1H-pyrazole-5-carbonyl)-2,6-diazaspiro[3.6]decan-6-yl)quinazolin-7-yl)-7-fluorobenzo[b]thiophene-3-carbonitrile]
IC50 (KRASG12D): < 5 µM | IC50 (KRASwt): < 5 µM

C[C@@H]1CN(C(=O)N2CC3(CCCCN(c4nc(OC[C@@]56CCCN5C[C@H](F)C6)nc5c(F)c(-c6ccc(F)c7sc(N)c(C#N)c67)c(Cl)cc45)C3)C2)CCO1 [compound 322, 2-amino-4-(6-chloro-8-fluoro-2-(((2R,7aS)-2-fluorotetrahydro-1H-pyrrolizin-7a(5H)-yl)methoxy)-4-(2-((R)-2-methylmorpholine-4-carbonyl)-2,6-diazaspiro[3.6]decan-6-yl)quinazolin-7-yl)-7-fluorobenzo[b]thiophene-3-carbonitrile]
IC50 (KRASG12D): < 5 µM | IC50 (KRASwt): < 5 µM

CN(C)C/C=C/C(=O)N1CC2(CCCN(c3nc(OC[C@@]45CCCN4C[C@H](F)C5)nc4c(F)c(-c5ccc(F)c6sc(N)nc56)c(Cl)cc34)C2)C1 [compound 181, (E)-1-(6-(7-(2-amino-7-fluorobenzo[d]thiazol-4-yl)-6-chloro-8-fluoro-2-(((2R,7aS)-2-fluorotetrahydro-1H-pyrrolizin-7a(5H)-yl)methoxy)quinazolin-4-yl)-2,6-diazaspiro[3.5]nonan-2-yl)-4-(dimethylamino)but-2-en-1-one]
IC50 (KRASG12D): < 5 µM | IC50 (KRASwt): < 5 µM

N#Cc1c(N)sc2c(F)ccc(-c3c(Cl)cc4c(N5CCCC6(CCNC6)C5)nc(OC[C@@]56CCCN5C[C@H](F)C6)nc4c3F)c12 (stereo partly drawn) [compound 111, 2-amino-4-(6-chloro-8-fluoro-2-(((2R,7aS)-2-fluorotetrahydro-1H-pyrrolizin-7a(5H)-yl)methoxy)-4-(2,7-diazaspiro[4.5]decan-7-yl)quinazolin-7-yl)-7-fluorobenzo[b]thiophene-3-carbonitrile]
IC50 (KRASG12D): < 5 µM | IC50 (KRASwt): < 5 µM

N#Cc1c(N)sc2c(F)ccc(-c3c(Cl)cc4c(N5CCCCC6(CN(C(=O)[C@H]7C[C@@H]7F)C6)C5)nc(OC[C@@]56CCCN5C[C@H](F)C6)nc4c3F)c12 [compound 284, 2-amino-4-(6-chloro-8-fluoro-4-(2-((1R,2S)-2-fluorocyclopropane-1-carbonyl)-2,6-diazaspiro[3.6]decan-6-yl)-2-(((2R,7aS)-2-fluorotetrahydro-1H-pyrrolizin-7a(5H)-yl)methoxy)quinazolin-7-yl)-7-fluorobenzo[b]thiophene-3-carbonitrile]
IC50 (KRASG12D): < 5 µM | IC50 (KRASwt): < 5 µM

Cn1nc(C(F)F)cc1C(=O)N1CC2(CCCCN(c3nc(OC[C@@]45CCCN4C[C@H](F)C5)nc4c(F)c(-c5ccc(F)c6sc(N)c(C#N)c56)c(Cl)cc34)C2)C1 [compound 343, 2-amino-4-(6-chloro-4-(2-(3-(difluoromethyl)-1-methyl-1H-pyrazole-5-carbonyl)-2,6-diazaspiro[3.6]decan-6-yl)-8-fluoro-2-(((2R,7aS)-2-fluorotetrahydro-1H-pyrrolizin-7a(5H)-yl)methoxy)quinazolin-7-yl)-7-fluorobenzo[b]thiophene-3-carbonitrile]
IC50 (KRASG12D): < 5 µM | IC50 (KRASwt): < 5 µM
